This note sets out measurements from patent US20250333407A1, “Compounds and Their Use for Treatment of Hemoglobinopathies” (Bristol-Myers Squibb Company, priority 2024, published 2025).

Type in all cases: cell-based
One experiment has as its target T1, WIZ (Homo sapiens, UniProt O95785+Q96SW2).
T1 construct: HUDEP-2 cells engineered to express a HiBiT tag in either the WIZ (Widely interspaced zinc finger) or ZBTB7A
The experiment can be described thus: HUDEP-2 WIZ HiBiT degradation assay. The note with it: HiBiT-tagged WIZ degradation in HUDEP-2 cells, 24 hours of treatment; read-out: WIZ EC50. The essentials:
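HiBiT-tagged HUDEP-2 cells at 1.0×10^6 cells/ml in SFEM II with SCF, EPO, dexamethasone and doxycycline, treated 24 h at 37 °C with a 10-point series ([…]). Luminescence after HiBiT lytic detection, normalized to DMSO; EC50 and Y-min from fitted curves.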

Another experiment addresses T2, ZBTB7A (Homo sapiens, UniProt O95365+Q96SW2).
T2 construct: HUDEP-2 cells engineered to express a HiBiT tag in either the WIZ (Widely interspaced zinc finger) or ZBTB7A
The experiment in a line: HUDEP-2 ZBTB7A HiBiT degradation assay. To be noted: HiBiT-tagged ZBTB7A degradation in HUDEP-2 cells, 24 hours of treatment; read-out: ZBTB7A EC50. The essentials: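 HiBiT-tagged HUDEP-2 cells were pre-cultured 48 h in IMDM with EPO, SCF, doxycycline and 5% human plasma, then exposed to compounds at 1.0×10^6 cells/ml for 24 h at 37 °C. Nano-Glo HiBiT lytic luminescence, normalised to DMSO over 10 concentrations, gave EC50 and Y-min.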
(With HiBiT, luminescence reflects the tagged protein that the partner subunit can reach.)

In the next experiment the test system is HbF. The experiment in a line: HbF HiBiT induction assay in HUDEP-2 cells. To be noted: HUDEP-2 cells with HiBiT tag in HBG1/2, 72 hours of treatment; area under the dose response curve, higher AUC = greater HbF induction. The essentials:
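HUDEP-2 cells carrying a HiBiT tag on HBG1/2 were exposed to compounds for 72 h at 37° C, 5% CO2, in IMDM with EPO, hSCF, DOX, transferrin, insulin, heparin and 5% human plasma. HiBiT luminescence was read after lytic detection; HbF induction is expressed as dose-response AUC, alongside EC50 and Ymax.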

T1 sequence (O95785 whole entry): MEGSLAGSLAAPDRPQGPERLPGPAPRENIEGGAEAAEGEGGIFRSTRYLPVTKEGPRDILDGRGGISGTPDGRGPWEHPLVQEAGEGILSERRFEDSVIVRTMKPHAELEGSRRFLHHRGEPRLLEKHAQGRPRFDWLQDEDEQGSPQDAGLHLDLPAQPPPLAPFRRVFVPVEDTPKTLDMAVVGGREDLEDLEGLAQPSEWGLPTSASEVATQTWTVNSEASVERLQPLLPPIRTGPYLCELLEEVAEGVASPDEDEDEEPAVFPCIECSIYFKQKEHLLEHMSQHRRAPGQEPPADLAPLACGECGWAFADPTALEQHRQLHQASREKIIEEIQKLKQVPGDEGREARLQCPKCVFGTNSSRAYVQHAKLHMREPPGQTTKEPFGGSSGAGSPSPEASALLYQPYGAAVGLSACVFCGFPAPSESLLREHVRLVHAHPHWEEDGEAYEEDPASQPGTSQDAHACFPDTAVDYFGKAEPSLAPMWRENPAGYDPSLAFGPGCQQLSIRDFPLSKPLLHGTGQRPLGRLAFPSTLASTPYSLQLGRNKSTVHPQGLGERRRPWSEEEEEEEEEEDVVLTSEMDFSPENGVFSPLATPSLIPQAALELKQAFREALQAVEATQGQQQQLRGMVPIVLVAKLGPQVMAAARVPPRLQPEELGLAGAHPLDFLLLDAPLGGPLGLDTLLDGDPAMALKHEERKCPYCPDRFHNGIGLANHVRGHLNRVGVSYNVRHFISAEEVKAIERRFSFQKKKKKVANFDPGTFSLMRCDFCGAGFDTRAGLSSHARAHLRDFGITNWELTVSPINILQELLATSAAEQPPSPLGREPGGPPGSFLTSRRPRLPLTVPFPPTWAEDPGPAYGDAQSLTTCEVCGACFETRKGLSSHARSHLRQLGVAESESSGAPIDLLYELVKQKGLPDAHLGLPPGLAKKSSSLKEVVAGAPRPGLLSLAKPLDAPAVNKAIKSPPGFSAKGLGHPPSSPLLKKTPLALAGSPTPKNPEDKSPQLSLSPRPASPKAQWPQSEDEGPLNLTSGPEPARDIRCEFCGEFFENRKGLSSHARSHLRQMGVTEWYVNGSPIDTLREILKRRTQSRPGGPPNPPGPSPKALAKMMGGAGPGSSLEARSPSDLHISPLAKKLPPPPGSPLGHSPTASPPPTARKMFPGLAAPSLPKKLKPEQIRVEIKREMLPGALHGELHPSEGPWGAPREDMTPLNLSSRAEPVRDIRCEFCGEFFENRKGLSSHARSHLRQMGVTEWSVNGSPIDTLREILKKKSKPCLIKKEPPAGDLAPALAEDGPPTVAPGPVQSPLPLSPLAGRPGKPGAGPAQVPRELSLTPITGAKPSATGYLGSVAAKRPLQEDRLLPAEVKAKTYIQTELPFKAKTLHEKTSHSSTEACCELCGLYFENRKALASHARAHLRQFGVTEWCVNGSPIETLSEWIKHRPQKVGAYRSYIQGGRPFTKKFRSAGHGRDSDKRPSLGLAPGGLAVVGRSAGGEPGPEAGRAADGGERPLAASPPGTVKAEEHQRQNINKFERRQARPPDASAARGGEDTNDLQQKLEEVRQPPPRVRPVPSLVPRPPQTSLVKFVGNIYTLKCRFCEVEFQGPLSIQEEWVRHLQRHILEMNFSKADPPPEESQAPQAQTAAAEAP
T1 sequence (Q96SW2 whole entry): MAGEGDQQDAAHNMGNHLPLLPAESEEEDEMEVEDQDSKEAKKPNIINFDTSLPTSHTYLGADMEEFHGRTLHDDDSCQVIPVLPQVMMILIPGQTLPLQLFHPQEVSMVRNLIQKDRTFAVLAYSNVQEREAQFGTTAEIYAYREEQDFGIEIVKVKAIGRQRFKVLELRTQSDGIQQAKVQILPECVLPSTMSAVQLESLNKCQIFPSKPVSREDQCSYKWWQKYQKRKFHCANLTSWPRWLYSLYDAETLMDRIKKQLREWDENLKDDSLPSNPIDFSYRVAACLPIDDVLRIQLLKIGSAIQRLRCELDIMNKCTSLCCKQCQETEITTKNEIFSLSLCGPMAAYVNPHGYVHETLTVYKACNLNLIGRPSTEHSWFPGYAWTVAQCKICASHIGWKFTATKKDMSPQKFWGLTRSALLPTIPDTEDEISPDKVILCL
T1 sequence (Q16531 whole entry partner): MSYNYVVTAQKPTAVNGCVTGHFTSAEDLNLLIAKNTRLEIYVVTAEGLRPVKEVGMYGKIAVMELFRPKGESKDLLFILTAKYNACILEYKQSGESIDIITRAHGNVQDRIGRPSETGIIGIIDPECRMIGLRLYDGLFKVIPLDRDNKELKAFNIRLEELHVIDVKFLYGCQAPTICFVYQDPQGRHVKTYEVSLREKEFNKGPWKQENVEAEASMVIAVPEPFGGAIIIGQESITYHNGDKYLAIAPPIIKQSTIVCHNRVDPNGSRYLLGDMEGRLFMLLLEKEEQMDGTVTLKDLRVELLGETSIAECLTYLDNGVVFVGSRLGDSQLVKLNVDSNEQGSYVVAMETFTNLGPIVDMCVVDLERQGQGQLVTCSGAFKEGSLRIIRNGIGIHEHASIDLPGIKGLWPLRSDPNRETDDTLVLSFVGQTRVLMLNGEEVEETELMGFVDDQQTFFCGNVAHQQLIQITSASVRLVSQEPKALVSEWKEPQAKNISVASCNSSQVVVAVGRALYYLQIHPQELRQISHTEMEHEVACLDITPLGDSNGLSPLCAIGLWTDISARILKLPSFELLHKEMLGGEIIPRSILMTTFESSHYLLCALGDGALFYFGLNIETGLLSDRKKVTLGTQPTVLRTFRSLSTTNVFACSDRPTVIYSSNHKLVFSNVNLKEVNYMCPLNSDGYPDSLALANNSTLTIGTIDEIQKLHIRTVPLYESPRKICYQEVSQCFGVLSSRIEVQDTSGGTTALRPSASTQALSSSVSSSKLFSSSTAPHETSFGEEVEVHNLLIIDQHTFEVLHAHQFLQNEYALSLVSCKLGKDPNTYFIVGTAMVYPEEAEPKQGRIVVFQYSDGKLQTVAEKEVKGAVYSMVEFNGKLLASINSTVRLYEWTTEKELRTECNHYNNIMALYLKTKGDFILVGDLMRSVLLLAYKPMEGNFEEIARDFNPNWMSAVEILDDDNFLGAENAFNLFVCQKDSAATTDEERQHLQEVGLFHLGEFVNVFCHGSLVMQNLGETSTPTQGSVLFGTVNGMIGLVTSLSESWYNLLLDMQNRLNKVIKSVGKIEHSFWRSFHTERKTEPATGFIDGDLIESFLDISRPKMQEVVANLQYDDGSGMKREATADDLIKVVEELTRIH
T2 sequence (O95365 whole entry): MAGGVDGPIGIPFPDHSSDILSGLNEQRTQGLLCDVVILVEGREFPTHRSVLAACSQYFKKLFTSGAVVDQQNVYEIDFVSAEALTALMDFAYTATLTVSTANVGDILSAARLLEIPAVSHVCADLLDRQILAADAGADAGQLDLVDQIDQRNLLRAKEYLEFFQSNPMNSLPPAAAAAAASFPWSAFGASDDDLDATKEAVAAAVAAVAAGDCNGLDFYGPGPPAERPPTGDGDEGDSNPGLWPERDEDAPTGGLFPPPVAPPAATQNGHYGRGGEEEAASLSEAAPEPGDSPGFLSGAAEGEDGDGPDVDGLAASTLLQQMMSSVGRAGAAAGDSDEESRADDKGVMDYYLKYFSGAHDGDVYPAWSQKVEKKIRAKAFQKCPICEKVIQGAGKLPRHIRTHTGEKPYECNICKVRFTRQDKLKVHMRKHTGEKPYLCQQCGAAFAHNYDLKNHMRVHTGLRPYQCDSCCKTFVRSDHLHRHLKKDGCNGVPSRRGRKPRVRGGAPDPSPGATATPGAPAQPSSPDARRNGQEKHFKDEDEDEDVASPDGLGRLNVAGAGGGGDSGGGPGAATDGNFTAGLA
T2 sequence (Q96SW2 whole entry): as the sequence (Q96SW2 whole entry) above
T2 sequence (Q16531 whole entry partner): as the sequence (Q16531 whole entry partner) above

With `Cc1cc(-c2cc3c(cc2Nc2cccc4c2C(=O)N([C@H]2CCC(=O)NC2=O)C4=O)N(C)C(=O)CO3)c(F)cn1` [Compound 61, (S)-2-(2,6-dioxopiperidin-3-yl)-4-((7-(5-fluoro-2-methylpyridin-4-yl)-4-methyl-3-oxo-3,4-dihydro-2H-benzo[b][1,4]oxazin-6-yl)amino)isoindoline-1,3-dione], the DC50 was 0.007 µM at WIZ and 0.011 µM on ZBTB7A. In addition, the “HBF AUC” value with HbF was “++ (++ = 100 ≤ AUC < 150)”.

As to `Cc1cc(-c2cc3c(cc2Nc2cccc4c2C(=O)N([C@H]2CCC(=O)NC2=O)C4=O)N(C)C(=O)CO3)ccn1` [Compound 18, (S)-2-(2,6-dioxopiperidin-3-yl)-4-((4-methyl-7-(2-methylpyridin-4-yl)-3-oxo-3,4-dihydro-2H-benzo[b][1,4]oxazin-6-yl)amino)isoindoline-1,3-dione], the DC50 on WIZ and at ZBTB7A was 0.011 µM in each case. Moreover, in the experiment with HbF, the “HBF AUC” value was “+++ (+++ = AUC ≥ 150)”.

`CC(=O)N1CCC(c2cc3c(cc2Nc2cccc4c2C(=O)N([C@H]2CCC(=O)NC2=O)C4=O)N(C)C(=O)[C@H](C)O3)CC1` [Compound 31, 4-(((S)-7-(1-acetylpiperidin-4-yl)-2,4-dimethyl-3-oxo-3,4-dihydro-2H-benzo[b][1,4]oxazin-6-yl)amino)-2-((S)-2,6-dioxopiperidin-3-yl)isoindoline-1,3-dione]: the DC50 turned out to be 0.006 µM at WIZ and 0.035 µM on ZBTB7A. For the same compound, the “HBF AUC” value in the experiment with HbF was “+++ (+++ = AUC ≥ 150)”.

With `Cc1cc(-c2cc3c(cc2Nc2cccc4c2C(=O)N(C2CCC(=O)NC2=O)C4=O)N(C)C(=O)CO3)cc(C2CC2)n1` (stereo not drawn) [Compound 57, 4-((7-(2-cyclopropyl-6-methylpyridin-4-yl)-4-methyl-3-oxo-3,4-dihydro-2H-benzo[b][1,4]oxazin-6-yl)amino)-2-(2,6-dioxopiperidin-3-yl)isoindoline-1,3-dione], the DC50 on WIZ is 0.018 µM; on ZBTB7A, 0.054 µM. The “HBF AUC” value in the experiment with HbF is “+++ (+++ = AUC ≥ 150)”.

Consider `Cc1cc(-c2c(Nc3cccc4c3C(=O)N([C@H]3CCC(=O)NC3=O)C4=O)cc3c(c2F)OCC(=O)N3C)c(F)cn1` [Compound 67, 2-((S)-2,6-dioxopiperidin-3-yl)-4-((8-fluoro-7-(5-fluoro-2-methylpyridin-4-yl)-4-methyl-3-oxo-3,4-dihydro-2H-benzo[b][1,4]oxazin-6-yl)amino)isoindoline-1,3-dione], for which the DC50 turned out to be 0.017 µM at WIZ and 0.025 µM at ZBTB7A. Besides, the “HBF AUC” value with HbF is reported as “++ (++ = 100 ≤ AUC < 150)”.

Consider `COc1nccc(-c2cc3c(cc2Nc2cccc4c2C(=O)N([C@H]2CCC(=O)NC2=O)C4=O)N(C)C(=O)[C@@H](C)O3)c1F` [Compound 36, 2-((S)-2,6-dioxopiperidin-3-yl)-4-(((R)-7-(3-fluoro-2-methoxypyridin-4-yl)-2,4-dimethyl-3-oxo-3,4-dihydro-2H-benzo[b][1,4]oxazin-6-yl)amino)isoindoline-1,3-dione], for which the figures for the DC50 on WIZ and on ZBTB7A were 0.015 µM and 0.019 µM, respectively. For the same compound, the “HBF AUC” value in the experiment with HbF is on record as “+ (+ = 15 ≤ AUC < 100)”.

With `Cc1cc(-c2cc3c(cc2Nc2cccc4c2C(=O)N(C2CCC(=O)NC2=O)C4=O)N(C)C(=S)CC3)ccn1` (stereo not drawn) [Compound 19, 2-(2,6-dioxopiperidin-3-yl)-4-((1-methyl-6-(2-methylpyridin-4-yl)-2-thioxo-1,2,3,4-tetrahydroquinolin-7-yl)amino)isoindoline-1,3-dione], the figures for the DC50 at WIZ and at ZBTB7A were 0.028 µM and 0.021 µM, respectively. Besides, the “HBF AUC” value in the experiment on HbF was “++ (++ = 100 ≤ AUC < 150)”.

For the compound `Cc1cc(-c2cc3c(cc2Nc2cccc4c2C(=O)N([C@H]2CCC(=O)NC2=O)C4=O)N(C)C(=O)[C@H](C)C3)ccn1` [Compound 87, 4-(((R)-1,3-dimethyl-6-(2-methylpyridin-4-yl)-2-oxo-1,2,3,4-tetrahydroquinolin-7-yl)amino)-2-((S)-2,6-dioxopiperidin-3-yl)isoindoline-1,3-dione], the DC50 is 0.012 µM on WIZ and 0.016 µM at ZBTB7A. Moreover, in the experiment on HbF, the “HBF AUC” value is reported as “+ (+ = 15 ≤ AUC < 100)”.

With `CC(=O)N1CCC(c2cc3c(cc2Nc2cccc4c2C(=O)N([C@H]2CCC(=O)NC2=O)C4=O)N(C)C(=O)OC3C)CC1` (stereo partly drawn) [Compound 75, 4-((6-(1-acetylpiperidin-4-yl)-1,4-dimethyl-2-oxo-1,4-dihydro-2H-benzo[d][1,3]oxazin-7-yl)amino)-2-((S)-2,6-dioxopiperidin-3-yl)isoindoline-1,3-dione], the DC50 at WIZ was 0.037 µM; on ZBTB7A it was 0.075 µM. Besides, the “HBF AUC” value in the experiment with HbF is on record as “++ (++ = 100 ≤ AUC < 150)”.

`CCO[C@H]1CC[C@H](c2cc3c(cc2Nc2cccc4c2C(=O)N([C@@H]2CCC(=O)NC2=O)C4=O)N(C)C(=O)[C@H](C)O3)CC1` [Compound 55, 2-((R)-2,6-dioxopiperidin-3-yl)-4-(((S)-7-((1r,4S)-4-ethoxycyclohexyl)-2,4-dimethyl-3-oxo-3,4-dihydro-2H-benzo[b][1,4]oxazin-6-yl)amino)isoindoline-1,3-dione]: the DC50 came to 0.006 µM on WIZ and 0.009 µM on ZBTB7A. For the same compound, the “HBF AUC” value with HbF was “++ (++ = 100 ≤ AUC < 150)”.

With `Cc1cc(-c2cc3c(cc2Nc2cccc4c2C(=O)N([C@H]2CCC(=O)NC2=O)C4=O)N(C)C(=O)O[C@H]3C)ccn1` [Compound 22, 4-(((S)-1,4-dimethyl-6-(2-methylpyridin-4-yl)-2-oxo-1,4-dihydro-2H-benzo[d][1,3]oxazin-7-yl)amino)-2-((S)-2,6-dioxopiperidin-3-yl)isoindoline-1,3-dione], the DC50 on WIZ is 0.017 µM; at ZBTB7A, 0.013 µM. In addition, the “HBF AUC” value with HbF is recorded as “+++ (+++ = AUC ≥ 150)”.

On to `Cc1cc(-c2cc3c(cc2Nc2cccc4c2C(=O)N([C@H]2CCC(=O)NC2=O)C4=O)N(C)C(=O)CO3)cc(C(F)F)n1` [Compound 47, (S)-4-((7-(2-(difluoromethyl)-6-methylpyridin-4-yl)-4-methyl-3-oxo-3,4-dihydro-2H-benzo[b][1,4]oxazin-6-yl)amino)-2-(2,6-dioxopiperidin-3-yl)isoindoline-1,3-dione], for which the DC50 on WIZ was found to be 0.043 µM; on ZBTB7A it was 0.049 µM. The “HBF AUC” value in the experiment on HbF is reported as “+++ (+++ = AUC ≥ 150)”.

In the case of `Cc1cc(-c2cc3c(cc2Nc2cccc4c2C(=O)N(C2CCC(=O)NC2=O)C4=O)N(C)S(=O)(=O)CC3)ccn1` (stereo not drawn) [Compound 50, 2-(2,6-dioxopiperidin-3-yl)-4-((1-methyl-6-(2-methylpyridin-4-yl)-2,2-dioxido-3,4-dihydro-1H-benzo[c][1,2]thiazin-7-yl)amino)isoindoline-1,3-dione], the DC50 is 0.018 µM at WIZ and 0.028 µM on ZBTB7A. The “HBF AUC” value with HbF was “+ (+ = 15 ≤ AUC < 100)”.

With `COc1nccc(-c2cc3oc(=O)n(C)c3cc2Nc2cccc3c2C(=O)N(C2CCC(=O)NC2=O)C3=O)c1F` (stereo not drawn) [Compound 65, 2-(2,6-dioxopiperidin-3-yl)-4-((6-(3-fluoro-2-methoxypyridin-4-yl)-3-methyl-2-oxo-2,3-dihydrobenzo[d]oxazol-5-yl)amino)isoindoline-1,3-dione], the results for the DC50 on WIZ and on ZBTB7A were 0.041 µM and 0.096 µM, respectively. Besides, in the experiment on HbF, the “HBF AUC” value was “+ (+ = 15 ≤ AUC < 100)”.

On to `Cc1cc(-c2cc3c(cc2Nc2cccc4c2C(=O)N([C@H]2CCC(=O)NC2=O)C4=O)N(C)C(=O)OC3C)cc(C)n1` (stereo partly drawn) [Compound 72, 4-((6-(2,6-dimethylpyridin-4-yl)-1,4-dimethyl-2-oxo-1,4-dihydro-2H-benzo[d][1,3]oxazin-7-yl)amino)-2-((S)-2,6-dioxopiperidin-3-yl)isoindoline-1,3-dione], for which the DC50 was found to be 0.014 µM at WIZ and 0.021 µM on ZBTB7A. Further, the “HBF AUC” value in the experiment on HbF is “+++ (+++ = AUC ≥ 150)”.
